Laboratory results as given in patent EP1285918A1, “C7 Ester substituted taxanes as antitumor agents” (Florida State University Research Foundation, Inc., priority 2001, dated 2003).
Like-named read-outs stand apart in the source and are kept apart here.

Assays:
[1] = test system: A2780 Human Ovarian Carcinoma Xenografts
Procedure: Other antitumor compounds were similarly formulated. […] The dosing volume was 0.3 ml per 20 g mouse.
Female NCr-nude mice (implanted subcutaneously with 1 mm^3 A2780 ovarian carcinoma fragments in the flank) were sorted into treatment groups of five mice each, except for the Taxotere treatment group including six mice. […] Dosing was initiated on Day 1. The antitumor compounds were given i.v. at an estimated maximum tolerated dose (MTD) appropriate for each agent on a qd x 1 schedule (single administration of compound). […] Taxotere was given i.v. on a qd x 1 schedule at a dose of 70 mg/kg. The vehicle was administered i.v. to control mice in Group 1 on the qd x 1 schedule. Treatment groups are detailed in Table 7. The study was terminated on Day 60.
(§1) The results are summarized in Table 8 and include mean days of survival (MDS), number of toxic deaths, number of survivors, number of complete or partial responses, and number with stable disease. The mean days of survival is the number of days after which a neoplasm reached a size of 2.0 g and the animal was euthanized. A complete response is obtained if the tumor is not palpable at the end of the study. A partial response is obtained if the tumor shrinks to a size smaller than its size on Day 1 of the study.

[2] = test system: SKMES Human Lung Carcinoma Xenograft; settings: 40 mg/kg single oral bolus Day 1, 6 mice/group, study end Day 60
Procedure: Antitumor compounds were formulated for oral administration over a wide dose range in a study to investigate the efficacy of this compound against the SKMES human lung cancer xenograft. The antitumor compounds were prepared in the following vehicle: 5% ethanol, 5% Cremophor and 90% isotonic saline.
Female Nu/Nu mice (6-8 weeks of age; implanted with 1 mm^3 SKMES lung carcinoma fragments in the flank) were sorted into treatment groups of six mice each. SKMES size ranges and group mean SKMES size ranges were 126-448 mg and 238-241 mg, respectively. […] Treatments were administered as a single oral bolus on Day 1, and the study was terminated on Day 60.
The mean days of survival is the number of days after which a SKMES neoplasm reached a size of 2.0 g and the animal was euthanized. A complete response is obtained if the tumor is not palpable at the end of the study. A partial response is obtained if the tumor shrinks to a size smaller than its size on Day 1 of the study. […]

[3] = test system: HCT116 Human Colon Carcinoma Xenograft; settings: for Mean Score: tumor score 1 to 10, group mean
[4] = test system: HCT116 human colon carcinoma xenograft; settings: 18 mg/kg i.v. qd x 5, 10 mice/group, study end Day 60
Excerpt: Six groups consisting of ten mice in each group were made up of female Nu/Nu mice (8-9 weeks of age; implanted with 1 mm^3 HCT116 human […] carcinoma fragments in the flank). Another six groups consisting of ten mice in each group were made up of male Nu/Nu mice (6-7 weeks of age; implanted with 1 mm^3 HCT116 human […] carcinoma fragments in the flank). […] The study was terminated on Day 60.
The results are summarized in Table 19 for the female mice and Table 20 for the male mice. Included are mean days of survival (MDS), number of toxic deaths, number of survivors, number of complete or partial responses, and number with stable disease. The mean days of survival is the number of days after which an […] neoplasm reached a size of 1.5 g and the animal was euthanized. A complete response is obtained if the tumor is not palpable at the end of the study. A partial response is obtained if the tumor shrinks to a size smaller than its size on Day 1 of the study. […]

[5] = test system: NCI-H1299 (H1299) carcinoma
Procedure: Two antitumor compounds were formulated for an i.v. dosing regime prepared in the following vehicle: 10% ethanol, 10% Cremophor and 80% isotonic saline. […] Other compounds were formulated similarly.
The MTDs for the antitumor compounds were calculated from earlier single dose data for mice receiving i.v. administration of these compounds. […] Vehicle control animals were dosed twice intravenously with half the total volume being given separated by one hour. The study was terminated at Day 60.
as §1, with “1” for “8”, “1.5” for “2.0”
A tumor scoring system was designed to provide a more quantitative ranking of efficacy (therapeutic potential) among the antitumor agents evaluated against the different human solid tumor xenografts. Each mouse in a study was given a score of from 1 to 10 at the end of the study. The scores can be summarized as follows:
The individual score for each mouse was averaged into a mean score for each treatment group. […]
The treatment protocol for the H1299 test was identical to the SK-MES test protocol. […]

[6] = Taxol i.p. 15 mg/kg qd x 5, 5 mice, Day 60
[7] = i.v. qd x 1 (mg/kg: Taxol 24, 1351 75.3, 1401 107.6, 1418 107.6, Taxotere 70), Day 60
[8] = HCT116, Taxol i.p. 18 mg/kg qd x 5
[9] = HCT116, Taxol i.p. 18 mg/kg qd x 5, 5 mice, Day 60
[10] = HCT116, i.v. Day 1 (Taxol 36 mg/kg split dose, 1393 73 mg/kg single dose), 5 mice/group, Day 60
[11] = i.v. split dose qd x 1 at MTD (Taxol 36 mg/kg, 1393 72.1 mg/kg), 6 mice/group, Day 60

CC(=O)O[C@H]1C(=O)[C@@]2(C)[C@H]([C@H](OC(=O)c3ccccc3)[C@]3(O)C[C@H](OC(=O)[C@H](O)[C@@H](NC(=O)c4ccccc4)c4ccccc4)C(C)=C1C3(C)C)[C@]1(OC(C)=O)CO[C@@H]1C[C@@H]2O [Taxol, paclitaxel, reference compound]
toxicity ([1]; Taxol i.p. 15 mg/kg qd x 5): highly toxic | Complete Response [1, 6]: 0 | Partial Response [1, 6]: 0 | Stable Disease [1, 6]: 0 | Survivors [1, 6]: 0 | Mean Score ([1]; Taxol i.p. 15 mg/kg qd x 5, tumor score 1 to 10, group mean): 0.6 ± 0.6 | MDS (n) ([1]; i.v. qd x 1 (mg/kg: Taxol 24, 1351 75.3, 1401 107.6, 1418 107.6, Taxotere 70), 2.0 g cut-off, Day 60): 21.9 ± 5.5 (5) days | Complete Response [1, 7]: 0 | Partial Response [1, 7]: 0 | Survivors [1, 7]: 1 | Toxic Deaths [1, 7]: 0 | Mean Score ([1]; i.v. qd x 1 (mg/kg: Taxol 24, 1351 75.3, 1401 107.6, 1418 107.6, Taxotere 70), tumor score 1 to 10, group mean): 1.8 ± 0.4 | survival extension compared to Group 1 controls ([1]; i.v. qd x 1 (mg/kg: Taxol 24, 1418 107.6, Taxotere 70)): 87% | % Total Response [2]: 0% | Complete Responses [2]: 0 | Partial Responses [2]: 0 | Stable Disease [2]: 0 | Survivors [2]: 0 | Toxic Deaths [2]: 0 | MDS (n) ([2]; days until tumor reached 2.0 g): 13.2 ± 1.4 (6) days | increase in survival compared to control Group 1 ([3]; HCT116, Taxol 36 mg/kg i.v. qd x 1): 24% | survival extension compared to Group 1 control mice [3, 8]: 84% | Complete Response [3, 9]: 0 | Stable Disease [3, 9]: 0 | Survivors [3, 9]: 1 | Toxic Deaths [3, 9]: 0 | Mean Score [3, 8]: 3.6 ± 1.4 | MDS (n) ([3]; HCT116, i.v. Day 1 (Taxol 36 mg/kg split dose, 1393 73 mg/kg single dose), 5 mice/group, 2.0 g cut-off, Day 60): 27.5 ± 1.7 (4) days | Complete Response [3, 10]: 0 | Partial Response [3, 10]: 0 | Survivors [3, 10]: 1 | Toxic Deaths [3, 10]: 0 | Mean Score ([3]; HCT116, i.v. Day 1 (Taxol 36 mg/kg split dose, 1393 73 mg/kg single dose)): 2.2 ± 0.5 | tolerability ([3]; mouse, in vivo, iv, 73 mg/kg): well-tolerated | Complete Responses ([4]; female mice): 4 | Partial Responses ([4]; female mice): 1 | Stable Disease ([4]; female mice): 1 | Survivors ([4]; female mice): 6 | Toxic Deaths ([4]; female mice): 1 | Complete Responses ([4]; male mice): 1 | Partial Responses ([4]; male mice): 2 | Stable Disease ([4]; male mice): 1 | Survivors ([4]; male mice): 4 | Toxic Deaths ([4]; male mice): 0 | survival extension compared to vehicle-treated animals ([5]; Taxol 36 mg/kg i.v.): 10% | MDS (n) ([5]; i.v. split dose qd x 1 at MTD (Taxol 36 mg/kg, 1393 72.1 mg/kg), 6 mice/group, 1.5 g cut-off, Day 60): 27.0 ± 4.6 (5) days | Complete Response [5, 11]: 0 | Stable Disease [5, 11]: 0 | Survivors [5, 11]: 1 | Toxic Deaths [5, 11]: 0 | Mean Score ([5]; i.v. split dose qd x 1 at MTD (Taxol 36 mg/kg, 1393 72.1 mg/kg), tumor score 1 to 10 per mouse, group mean): 2.7 ± 1.3
